The term Ki denotes a dissociation constant, usually derived from enzyme kinetics or from competition with a known ligand. A low value points to tighter binding.

The assay addresses T1, Promotilin (Homo sapiens, UniProt P12872).
T1 sequence (P12872 whole entry): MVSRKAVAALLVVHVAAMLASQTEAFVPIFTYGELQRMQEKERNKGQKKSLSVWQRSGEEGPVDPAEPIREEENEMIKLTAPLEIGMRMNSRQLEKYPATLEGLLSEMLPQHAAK
For the compound “H-FVPIFTYGELQRLQEKERN-NH2 [[leu13]pMOT(1-19)]”, the Ki is 0.98 nM.

On to “H-FVPIFTAGELQRLQ-NH2 [[ala7,leu13]pMOT(1-14)]”, for which the affinity, expressed as Ki, was 1450 nM. As for `CC[C@H]1OC(=O)[C@H](C)[C@@H](O[C@H]2C[C@@](C)(OC)[C@@H](O)[C@H](C)O2)[C@H](C)[C@@H](O[C@@H]2O[C@H](C)C[C@H](N(C)C)[C@H]2O)C2(C)CC(C)=C(O2)[C@H](C)[C@@H](O)[C@H]1C` (some centres undefined) [Erythromycin-B enol ether], affinity was put at a Ki of 7.59 nM.

On to H-FVPIFTYGELQ-NH2 [[leu13]pMOT(1-11)], for which the affinity, expressed as Ki, was 89.1 nM. As for `CC[C@H]1OC(=O)[C@H](C)[C@@H](O[C@H]2C[C@@](C)(OC)[C@@H](O)[C@H](C)O2)[C@H](C)[C@@H](O[C@@H]2O[C@H](C)C[C@H](N(C)C)[C@H]2O)[C@](C)(O)C[C@@H](C)C(=O)[C@H](C)[C@@H](O)[C@H]1C` [Erythromycin-B], the inhibitory constant (Ki) is 145 nM. On to “H-FVAIFTYGELQRLQ-NH2 [[ala3,leu13]pMOT(1-14)]”, for which the Ki was 1.32 nM. Next, “H-FVPIFTYGELQRAQ-NH2 [[ala13,leu13]pMOT(1-14)]”: 7.24 nM; “H-FVPIFAYGELQRLQ-NH2 [[ala6,leu13]pMOT(1-14)]”: 46.8 nM; “H-FVPIATYGELQRLQ-NH2 [[ala5,leu13]pMOT(1-14)]”: 28.8 nM. Consider `CC[C@H](C)[C@H](NC(=O)[C@@H]1CCCN1C(=O)[C@@H](NC(=O)[C@@H](N)Cc1ccccc1)C(C)C)C(=O)N[C@@H](Cc1ccccc1)C(=O)N[C@H](C(=O)N[C@@H](Cc1ccc(O)cc1)C(=O)NCC(=O)N[C@@H](CCC(=O)O)C(=O)N[C@@H](CC(C)C)C(=O)N[C@@H](CCC(N)=O)C(=O)N[C@@H](CCCN=C(N)N)C(=O)N[C@@H](CC(C)C)C(=O)N[C@@H](CCC(N)=O)C(=O)N[C@@H](CCC(=O)O)C(=O)N[C@@H](CCCCN)C(N)=O)[C@@H](C)O` [[leu13]pMOT(1-16)], for which the affinity corresponds to a Ki of 2.14 nM.

Consider “H-FVPIFTYGELARLQ-NH2 [[ala11,leu13]pMOT(1-14)]”, for which the Ki was found to be 4.57 nM. Turning to H-FVPIFTY-NH2 [[leu13]pMOT(1-7)], the Ki was 6920 nM.

In turn, “H-FVPIFTYGELQALQ-NH2 [[ala12,leu13]pMOT(1-14)]” gave an inhibitory constant (Ki) of 6.31 nM. As to `CC[C@H]1OC(=O)[C@H](C)[C@@H](O[C@H]2C[C@@](C)(OC)[C@@H](O)[C@H](C)O2)[C@H](C)[C@@H](O[C@@H]2O[C@H](C)C[C@H](N(C)CC)[C@H]2O)[C@](C)(O)C[C@@H](C)C(=O)[C@H](C)[C@@H](O)[C@]1(C)O` [N-ethyl, N-Methyl Erythromycin-A], the Ki came out at 240 nM. Compound `CC[C@H]1OC(=O)[C@H](C)[C@@H](O[C@H]2C[C@@](C)(OC)[C@@H](O)[C@H](C)O2)[C@H](C)[C@@H](O[C@@H]2O[C@H](C)C[C@H](N(C)C)[C@H]2O)[C@@]2(C)CC(C)=C(O2)[C@H](C)[C@@H](O)[C@]1(C)O` [Erythromycin-A enol ether] returned an inhibition constant (Ki) of 8.32 nM. Take “H-FVPIFTYGELQRLA-NH2 [[ala14,leu13]pMOT(1-14)]”: affinity was put at a Ki of 7.08 nM. In turn, H-FVPIF-NH2 [[leu13]pMOT(1-5)] returned a Ki of 8910 nM. In turn, “H-FVPIFTYGEAQRLQ-NH2 [[ala10,leu13]pMOT(1-14)]” gave an inhibition constant Ki of 5.01 nM. Against the preceding compound, the Ki is about 1800-fold lower. For “H-FVPAFTYGELQRLQ-NH2 [[ala4,leu13]pMOT(1-14)]”, the Ki is 2570 nM. Compound “H-FVPIFTYGALQRLQ-NH2 [[ala9,leu13]pMOT(1-14)]” registered an inhibition constant Ki of 75.9 nM. Turning to H-FVPIFTYGE-NH2 [[leu13]pMOT(1-9)], the affinity, expressed as Ki, was 4070 nM.

For “H-FVPIFTYGELQRLQEKERNKGQ-OH [[leu13]pMOT(1-22)]”, the Ki came out at 1 nM. This Ki is about 4100-fold lower than that of the compound before. Consider `CC[C@H]1OC(=O)[C@H](C)[C@@H](O[C@H]2C[C@@](C)(OC)[C@@H](O)[C@H](C)O2)[C@H](C)[C@@H](O[C@@H]2O[C@H](C)C[C@H](N(C)CC)[C@H]2O)[C@@]2(C)CC(C)=C(O2)[C@H](C)[C@@H](O)[C@]1(C)O` [N-ethyl, N-methyl Erythromycin-A enol ether], for which the inhibition constant Ki was determined as 6.03 nM. Next, “H-FVPIFTYAELQRLQ-NH2 [[ala8,leu13]pMOT(1-14)]”: 36.3 nM.

The values above are taken from BindingDB's records for doi:10.1016/S0006-291X(02)00356-X (Katholieke Universiteit Leuven, 2002).
